Measured values taken from US20240108623A1, “METHODS OF TREATING CANCER WITH POZIOTINIB” (BOARD OF REGENTS, THE UNIVERSITY OF TEXAS SYSTEM, priority 2021, published 2024).

Experiments:
Assay in all cases: Ba/F3 cell drug screening, Cell Titer Glo
Format in all cases: cell-based
EGFR L858R/L792H = molecular target: T1, EGFR L858R/L792H (Homo sapiens, UniProt P00533, L792H/L858R); conditions: Ba/F3 cells expressing EGFR L858R/L792H; 72 hours
T1 construct: expressed in transfected cells; host or cells: Ba/F3 (retroviral transduction, pBabe-Puro based vectors)
Summary of the method: (§1)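 Mutant EGFR-driven Ba/F3 cells, maintained in 1 ng/ml EGF, are treated 72 h with a seven-concentration TKI series. Viability is read by CellTiter-Glo, and IC50 derived by variable-slope regression.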

EGFR S720P = molecular target: T2, EGFR S720P (Homo sapiens, UniProt P00533, S720P); conditions: Ba/F3 cells expressing EGFR S720P; 72 hours
T2 construct: expressed in transfected cells; host or cells: Ba/F3 (retroviral, pBabe-Puro based vector; created by GeneScript from EGFR WT)
Summary of the method: as §1

EGFR L858R/T790M = molecular target: T3, EGFR L858R/T790M (Homo sapiens, UniProt P00533, L858R/T790M); conditions: Ba/F3 cells expressing EGFR L858R/T790M; 72 hours
T3 construct: expressed in transfected cells; host or cells: Ba/F3 (retroviral transduction, pBabe-Puro based vectors)
Summary of the method: as §1

EGFR S768I = molecular target: T4, EGFR S768I (Homo sapiens, UniProt P00533, S768I); conditions: Ba/F3 cells expressing EGFR S768I; 72 hours
T4 construct: expressed in transfected cells; host or cells: Ba/F3 (retroviral transduction, pBabe-Puro based vectors)
Summary of the method: as §1

EGFR S768I/V769L = molecular target: T5, EGFR S768I/V769L (Homo sapiens, UniProt P00533, S768I/V769L); conditions: Ba/F3 cells expressing EGFR S768I/V769L; 72 hours
T5 construct: host or cells: Ba/F3 (retroviral transduction, pBabe-Puro based vectors)
Summary of the method: as §1

EGFR D761N = molecular target: T6, EGFR D761N (Homo sapiens, UniProt P00533, D761N); conditions: Ba/F3 cells expressing EGFR D761N; 72 hours
T6 construct: expressed in transfected cells; host or cells: Ba/F3 (retroviral, pBabe-Puro based vector)
Summary of the method: as §1

EGFR E709A = molecular target: T7, EGFR E709A (Homo sapiens, UniProt P00533, E709A); conditions: Ba/F3 cells expressing EGFR E709A; 72 hours
T7 construct: expressed in transfected cells; host or cells: Ba/F3 (retroviral transduction, pBabe-Puro based vectors)
Summary of the method: as §1

EGFR L858R/L718V = molecular target: T8, EGFR L858R/L718V (Homo sapiens, UniProt P00533, L718V/L858R); conditions: Ba/F3 cells expressing EGFR L858R/L718V; 72 hours
T8 construct: host or cells: Ba/F3 (retroviral transduction, pBabe-Puro based vectors)
Summary of the method: as §1

EGFR L858R = molecular target: T9, EGFR L858R (Homo sapiens, UniProt P00533, L858R); conditions: Ba/F3 cells expressing EGFR L858R; 72 hours
T9 construct: expressed in transfected cells; host or cells: Ba/F3 (retroviral, pBabe-Puro based vector)
Summary of the method: as §1

EGFR V774M = molecular target: T10, EGFR V774M (Homo sapiens, UniProt P00533, V774M); conditions: Ba/F3 cells expressing EGFR V774M; 72 hours
T10 construct: host or cells: Ba/F3 (retroviral transduction, pBabe-Puro based vectors)
Summary of the method: as §1

EGFR E709K L858R = molecular target: T11, EGFR E709K L858R (Homo sapiens, UniProt P00533, E709K/L858R); conditions: Ba/F3 cells expressing EGFR E709K L858R; 72 hours
T11 construct: expressed in transfected cells; host or cells: Ba/F3 (retroviral, pBabe-Puro based vector)
Summary of the method: as §1

EGFR L858R/T790M/C797S = molecular target: T12, EGFR L858R/T790M/C797S (Homo sapiens, UniProt P00533, C797S/L858R/T790M); conditions: Ba/F3 cells expressing EGFR L858R/T790M/C797S; 72 hours
T12 construct: expressed in transfected cells; host or cells: Ba/F3 (retroviral transduction, pBabe-Puro based vectors)
Summary of the method: as §1

EGFR T790M = molecular target: T13, EGFR T790M (Homo sapiens, UniProt P00533, T790M); conditions: Ba/F3 cells expressing EGFR T790M; 72 hours
T13 construct: expressed in transfected cells; host or cells: Ba/F3 (retroviral transduction, pBabe-Puro based vectors)
Summary of the method: as §1

EGFR E709K = molecular target: T14, EGFR E709K (Homo sapiens, UniProt P00533, E709K); conditions: Ba/F3 cells expressing EGFR E709K; 72 hours
T14 construct: expressed in transfected cells; host or cells: Ba/F3 (retroviral transduction, pBabe-Puro based vectors)
Summary of the method: as §1

EGFR L858R T790M L718V = molecular target: T15, EGFR L858R T790M L718V (Homo sapiens, UniProt P00533, L718V/L858R/T790M); conditions: Ba/F3 cells expressing EGFR L858R T790M L718V; 72 hours
T15 construct: expressed in transfected cells; host or cells: Ba/F3 (retroviral transduction, pBabe-Puro based vectors)
Summary of the method: as §1

EGFR L858R/C797S = molecular target: T16, EGFR L858R/C797S (Homo sapiens, UniProt P00533, C797S/L858R); conditions: Ba/F3 cells expressing EGFR L858R/C797S; 72 hours
T16 construct: expressed in transfected cells; host or cells: Ba/F3 (retroviral transduction, pBabe-Puro based vectors)
Summary of the method: as §1

Structure (SMILES): C=CC(=O)N1CCC(Oc2cc3c(Nc4ccc(Cl)c(Cl)c4F)ncnc3cc2OC)CC1 [Poziotinib]
- Response of Cells Comprising PACC EGFR Mutations to Second-Generation TKIs (EGFR L858R/L792H): 0.07789
- Response of Cells Comprising Classical-Like EGFR Mutations to Second-Generation TKIs (EGFR S720P): 0.1814
- Response of Cells Comprising T790M-like-S EGFR Mutations to Second-Generation TKIs (EGFR L858R/T790M): 2.414
- Response of Cells Comprising PACC EGFR Mutations to Second-Generation TKIs (EGFR S768I): 4.858
- Response of Cells Comprising PACC EGFR Mutations to Second-Generation TKIs (EGFR S768I/V769L): 0.04206
- Response of Cells Comprising Classical-Like EGFR Mutations to Second-Generation TKIs (EGFR D761N): 0.007859
- Response of Cells Comprising PACC EGFR Mutations to Second-Generation TKIs (EGFR E709A): 0.02334
- Response of Cells Comprising PACC EGFR Mutations to Second-Generation TKIs (EGFR L858R/L718V): 0.01621
- Response of Cells Comprising Classical-Like EGFR Mutations to Second-Generation TKIs (EGFR L858R): 0.02579
- Response of Cells Comprising PACC EGFR Mutations to Second-Generation TKIs (EGFR V774M): 0.01859
- Response of Cells Comprising Classical-Like EGFR Mutations to Second-Generation TKIs (EGFR E709K L858R): 0.005342
- Response of Cells Comprising T790M-like-R EGFR Mutations to Second-Generation TKIs (EGFR L858R/T790M/C797S): 935.3
- Response of Cells Comprising T790M-like-S EGFR Mutations to Second-Generation TKIs (EGFR T790M): 4.671
- Response of Cells Comprising PACC EGFR Mutations to Second-Generation TKIs (EGFR E709K): 0.0379
- Response of Cells Comprising T790M-like-R EGFR Mutations to Second-Generation TKIs (EGFR L858R T790M L718V): 33.63
- Response of Cells Comprising PACC EGFR Mutations to Second-Generation TKIs (EGFR L858R/C797S): 0.2299
